Assay results published in PubChem BioAssay AID1199 (EPA DSSTox, 2008).
Activity calls are given as the source filed them.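 The calls were made as follows: active = a tumour-causing dose and a tumour site recorded for mice in at least one sex group; inconclusive = only government mouse studies exist and were judged inadequate; inactive = mouse studies exist but none gave tumours.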

system: mouse carcinogenicity bioassay, TD50 from CPDB; assay: DSSTox (CPDBAS) Carcinogenic Potency Database Summary Mouse Bioassay Results; settings: TD50_Mouse_Note: no positive results; TargetSites_Mouse_Female: no positive results
Method in brief: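 Values are TD50 carcinogenic potencies from mouse chronic bioassays, taking the most positive result for each sex-species. Sources are published literature and NCI/NTP studies; target sites reflect author-reported positive findings.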

| SMILES | outcome |
| --- | --- |
| O=[N+]([O-])c1ccc(O)c([N+](=O)[O-])c1 | inactive |
| C/C=C/C(=O)Oc1c(C(C)CCCCCC)cc([N+](=O)[O-])cc1[N+](=O)[O-] (stereo not drawn) | inactive; no positive results |
| CC[C@H]1OC(=O)C[C@@H](O)[C@H](C)[C@@H](O[C@@H]2O[C@H](C)[C@@H](O[C@H]3C[C@@](C)(O)[C@@H](O)[C@H](C)O3)[C@H](N(C)C)[C@H]2O)[C@@H](CC=O)C[C@@H](C)C(=O)/C=C/C(C)=C/C1CO[C@@H]1O[C@H](C)[C@@H](O)[C@@H](OC)[C@H]1OC (stereo partly drawn) | inactive; no positive results |
| CCCCN(CCCC)C(=S)[S-].CCCCN(CCCC)C(=S)[S-].[Ni+2] | inactive; no positive results |
| CCOC(=O)[C@H](CCc1ccccc1)N[C@@H](C)C(=O)N1Cc2ccccc2C[C@H]1C(=O)O | inactive; no positive results |
| CC1CC(C)(C)CC(OOC(C)(C)C)(OOC(C)(C)C)C1 (stereo not drawn) | inactive; no positive results |
| Cc1ccc(/C(=C\CN2CCCC2)c2ccccn2)cc1 | inactive; no positive results |
| O=S1OCC2C(CO1)C1(Cl)C(Cl)=C(Cl)C2(Cl)C1(Cl)Cl (stereo not drawn) | inactive; no positive results |
| [O-][Cl+]O | inactive; no positive results |
| O=[N+]([O-])/C=C/c1ccccc1 | inactive; no positive results |
| O=C1C(Cl)=C(Cl)C(=O)c2ccccc21 | inactive; no positive results |
| CCN(Cc1cccc(S(=O)(=O)[O-])c1)c1ccc(C(=C2C=CC(=[N+](C)C)C=C2)c2ccc(N(CC)Cc3cccc(S(=O)(=O)O)c3)cc2)cc1 | inactive; no positive results |
| O=C(O)Cc1c[nH]c2ccccc12 | inactive; no positive results |
| NC(=S)Nc1ccccc1 | inactive; no positive results |
| [N-]=[N+]=O | inactive; no positive results |
| COC(=O)C1=C(C)NC(C)=C(C(=O)OCCN2CCN(C(c3ccccc3)c3ccccc3)CC2)C1c1cccc([N+](=O)[O-])c1 (stereo not drawn) | inactive; no positive results |
| IC(I)I | inactive; no positive results |
| CC(Oc1ccc(Cl)cc1Cl)C(=O)O (stereo not drawn) | inactive; no positive results |
| O=[N+]([O-])c1cccc2ccccc12 | inactive; no positive results |
| Nc1ccc([N+](=O)[O-])cc1 | inactive; no positive results |
| C1C2OC2C2C1C1CC2C2OC12 (stereo not drawn) | inactive; no positive results |
| O=C(Nc1ccc([N+](=O)[O-])cc1Cl)c1cc(Cl)ccc1O | inactive; ntp bioassay inadequate |
| Cc1cc(Cl)ccc1OCC(=O)O | inactive; no positive results |
| O.O=S(=O)([O-])[O-].[Mn+2] | inactive; no positive results |
| CC(=O)[O][Hg][c]1ccccc1 | inactive; no positive results |
| CN(Cc1cnc2nc(N)nc(N)c2n1)c1ccc(C(=O)N[C@@H](CCC(=O)O)C(=O)O)cc1 | inactive; no positive results |
| S=C([S-])NCCNC(=S)[S-].[Mn+2] | inactive; no positive results |
| CC(C)COC(=O)c1ccc(O)cc1 | inactive; no positive results |
| CC1=C[C@H]2O[C@@H]3[C@H](O)[C@@H](O)[C@@](C)(C34CO4)[C@@]2(CO)[C@H](O)C1=O (stereo partly drawn) | inactive |
| CCC[CH2][Sn]([CH2]CCC)([O]C(C)=O)[O]C(C)=O | inactive; no positive results |

same assay, conditions: TD50_Mouse_Note: positive test results only by intraperitoneal or intravenous injection; TD50 is harmonic mean of more than one positive; TargetSites_Mouse_Female: hematopoietic system; lung

| SMILES | Potency |
| --- | --- |
| O=P1(N(CCCl)CCCl)NCCCO1 (stereo not drawn) | 0.0228 mmol/kg/day |

same assay, conditions: TD50_Mouse_Note: positive test results only by intraperitoneal or intravenous injection; TargetSites_Mouse_Female: peritoneal cavity

| SMILES | Potency |
| --- | --- |
| CN(C)C(=O)Cl | 0.0499 mmol/kg/day |

same assay, conditions: TargetSites_Mouse_BothSexes: no positive results

| SMILES | outcome |
| --- | --- |
| O=[N+]([O-])c1ccc(O)c([N+](=O)[O-])c1 | inactive |
| O=S(=O)([O-])[O-].O=S(=O)([O-])[O-].[Zr+4] | inactive |

same assay, conditions: TargetSites_Mouse_Female: liver; vascular system

| SMILES | Potency |
| --- | --- |
| Cc1ccc(N=C=O)cc1N=C=O | 1.44 mmol/kg/day |

same assay, conditions: TargetSites_Mouse_Female: lung

| SMILES | Potency |
| --- | --- |
| Cc1ccc(N)c(C)c1 | 0.0787 mmol/kg/day |

same assay, conditions: TargetSites_Mouse_Female: no positive results

| SMILES | Potency |
| --- | --- |
| CCOc1ccc(NC(C)=O)cc1N | 10.7 mmol/kg/day |
| N[C@@H](CCC(=O)NNc1ccc(C(=O)O)cc1)C(=O)O | 0.985 mmol/kg/day |
| Cc1ccc(N=Nc2c(O)ccc3ccccc23)c([N+](=O)[O-])c1 | 116 mmol/kg/day |

same assay, conditions: TargetSites_Mouse_Female: ovary

| SMILES | Potency |
| --- | --- |
| NC(=O)N/N=C/c1ccc([N+](=O)[O-])o1 | 0.155 mmol/kg/day |

same assay, conditions: TargetSites_Mouse_Female: stomach

| SMILES | Potency |
| --- | --- |
| Nc1nc(-c2ccc([N+](=O)[O-])o2)cs1 | 0.0373 mmol/kg/day |
| CC(Cl)C=O (stereo not drawn) | 0.139 mmol/kg/day |

same assay, conditions: TargetSites_Mouse_Female: uterus

| SMILES | Potency |
| --- | --- |
| COP(=O)(OC)OC | 2.39 mmol/kg/day |
